Measurements from the supplement of paper PMC10307832.

Legend:
Assay in all cases: relative viability (nuclei count vs DMSO), 5 days (fraction); higher = more cells survive
[1] = compound: CN(c1ncccc1CNc1nc(Nc2ccc3c(c2)CC(=O)N3)ncc1C(F)(F)F)S(C)(=O)=O + CC(C)C[C@H](NC(=O)[C@H](Cc1ccccc1)NC(=O)c1cnccn1)B(O)O [Bortezomib] (partner 0.002 µM)
How it was run: (§1)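 Lung cancer cell lines were pin-tool dosed in 1536-well plates on the day after seeding, with either a lone drug or a fixed anchor-drug dose plus five library-drug doses (not always all listed) in √10 steps. Nuclei were counted on 4× images after 5 days. Relative viability is the ratio of treated-well to vehicle-well nuclei counts, with each value a median of duplicate plates.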

[2] = compound: CN(c1ncccc1CNc1nc(Nc2ccc3c(c2)CC(=O)N3)ncc1C(F)(F)F)S(C)(=O)=O + CS(=O)(=O)N1CCN(Cc2cc3nc(-c4cccc5[nH]ncc45)nc(N4CCOCC4)c3s2)CC1 [Pictilisib] (partner 1 µM)
How it was run: as §1

[3] = compound: CN(c1ncccc1CNc1nc(Nc2ccc3c(c2)CC(=O)N3)ncc1C(F)(F)F)S(C)(=O)=O + O=C(c1cc(Cc2n[nH]c(=O)c3ccccc23)ccc1F)N1CCN(C(=O)C2CC2)CC1 [Olaparib] (partner 8 µM)
How it was run: as §1

[4] = compound: CN(c1ncccc1CNc1nc(Nc2ccc3c(c2)CC(=O)N3)ncc1C(F)(F)F)S(C)(=O)=O + CC(=O)Nc1cccc(-n2c(=O)n(C3CC3)c(=O)c3c(Nc4ccc(I)cc4F)n(C)c(=O)c(C)c32)c1 [Trametinib] (partner 0.02 µM)
How it was run: as §1

Cell Line	relative viability ([1]; first compound 0.01 µM)	relative viability ([1]; first compound 0.03162 µM)	relative viability ([1]; first compound 0.1 µM)	relative viability ([1]; first compound 1 µM)	relative viability ([2]; first compound 0.01 µM)	relative viability ([2]; first compound 0.03162 µM)	relative viability ([2]; first compound 0.1 µM)	relative viability ([2]; first compound 1 µM)	relative viability ([3]; first compound 0.01 µM)	relative viability ([3]; first compound 0.03162 µM)	relative viability ([3]; first compound 0.1 µM)	relative viability ([3]; first compound 0.3162 µM)	relative viability ([3]; first compound 1 µM)	relative viability ([4]; first compound 0.01 µM)	relative viability ([4]; first compound 0.03162 µM)	relative viability ([4]; first compound 0.1 µM)	relative viability ([4]; first compound 0.3162 µM)	relative viability ([4]; first compound 1 µM)	relative viability ([1]; first compound 0.3162 µM)	relative viability ([2]; first compound 0.3162 µM)
ChaGo-K-1	1.01	0.803	1.11	1.09	0.753	0.518	0.973	1.15	0.453	0.397	0.4	0.401	0.355	0.959	0.923	0.999	0.912	0.849		
EBC-1	0.596	0.5	0.56	0.499	0.365	0.325	0.391	0.305	0.71	0.649	0.706	0.634	0.58						0.585	0.36
EKVX	1.02	1.19	1.11	0.83	0.462	0.422	0.418	0.431	0.833	0.796	0.798	0.772	0.676	0.355	0.374	0.244	0.319	0.262	0.923	0.375
EMC-BAC-2	1.08	1.1	1	1.08	0.576	0.505	0.465	0.5	0.508	0.495	0.488	0.464	0.464	0.872	0.887	0.855	0.841	0.722	1.06	0.528
EPLC-272H	0.972	0.774	0.854	0.758	0.256	0.269	0.298	0.336	0.699	0.544	0.821	0.871	0.506	0.288	0.294	0.247	0.319	0.277	0.944	0.209
H3255	0.758	0.783	0.819	0.784	0.422	0.537	0.413	0.382	0.623	0.611	0.554	0.547	0.445	0.688	0.675	0.549	0.601	0.576	0.505	0.505
HARA	1.12	1.07	1.13	1.09	0.305	0.556	0.365	0.377	0.895	0.75	0.685	1.1	0.9	0.816	0.63	0.439	0.63	0.723	1.2	0.544
HCC-15	1.04	1	0.898	0.829	0.817	0.68	0.711	0.622	0.778	0.799	0.713	0.661	0.619	0.344	0.378	0.35	0.35	0.336	0.88	0.716
